Assay results: article PMC12881674, “Activation of TRPV3 channels in bladder cancer cells stimulates ATP release” (Molecular Pharmacology, 2025)

What was measured:
Assay type in all cases: cell-based
human TRPV3 = target: T1, human TRPV3 (Homo sapiens, UniProt Q8NET8); assay: fluo-4 fluorometric Ca2+ assay, concentration-response, HEK cells expressing human TRPV3; conditions: HEK cells expressing human TRPV3, fluo-4, room temperature, mean ± SD back-transformed from log space, n=5; read-out: EC50 for human TRPV3 activation
T1 construct: host or cells: HEK293
T1 sequence (Q8NET8 1-790): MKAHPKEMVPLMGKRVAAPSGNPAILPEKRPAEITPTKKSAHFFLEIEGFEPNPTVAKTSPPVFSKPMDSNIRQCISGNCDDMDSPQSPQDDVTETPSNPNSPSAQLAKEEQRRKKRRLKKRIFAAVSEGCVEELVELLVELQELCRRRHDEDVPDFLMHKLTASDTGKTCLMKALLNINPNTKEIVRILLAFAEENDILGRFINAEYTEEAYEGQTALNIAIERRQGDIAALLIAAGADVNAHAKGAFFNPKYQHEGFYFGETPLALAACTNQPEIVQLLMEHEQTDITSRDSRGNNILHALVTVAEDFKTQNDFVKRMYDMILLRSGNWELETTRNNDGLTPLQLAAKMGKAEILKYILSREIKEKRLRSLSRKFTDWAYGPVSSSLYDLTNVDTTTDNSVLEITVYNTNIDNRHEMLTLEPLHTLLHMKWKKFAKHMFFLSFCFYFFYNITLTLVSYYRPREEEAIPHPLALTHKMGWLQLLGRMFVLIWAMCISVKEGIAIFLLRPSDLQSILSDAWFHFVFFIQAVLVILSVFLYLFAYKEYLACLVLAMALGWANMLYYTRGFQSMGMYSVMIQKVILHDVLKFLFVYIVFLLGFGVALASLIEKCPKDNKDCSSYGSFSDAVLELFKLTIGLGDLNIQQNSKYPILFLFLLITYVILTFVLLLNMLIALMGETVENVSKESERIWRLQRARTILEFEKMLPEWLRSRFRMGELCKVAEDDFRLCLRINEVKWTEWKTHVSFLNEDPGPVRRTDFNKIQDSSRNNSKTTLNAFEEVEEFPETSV
Text: (§1) KU-19-19 (DSMZ no. ACC 395), CAL-29 (DSMZ no. ACC 515), 647-V (DSMZ no. ACC 414), RT-4 (DSMZ no. ACC 412), and RT-112 (DSMZ no. ACC 418) bladder cancer cell lines were obtained from the Leibniz Institute DSMZ (German Collection of Microorganisms and Cell Cultures). Human TRPV3 (NM_145068, purchased from OriGene) and mouse TRPV3 (NM_001371006), rat TRPV1, mouse TRPV2, mouse TRPV4, human TRPM2, human TRPM8, and human TRPA1 were stably transfected in HEK293 cells as described before.[27] […]
(§2) All fluorometric Ca^2+ assays were performed in HBS buffer at room temperature. […] For the primary compound screening and the generation of concentration-response analyses, a robotic liquid handling station (Freedom Evo 150; Tecan) with a built-in custom-made fluorescence plate imager was used. […] Fluorescence was excited using a 470-nm light-emitting diode, and emitted light was imaged through a 515-nm–long pass filter with a cooled Zyla 5.5 camera (Andor). Fluorescence was recorded and processed under the control of the μ-Manager 2.0 gamma software (https://micro-manager.org.[28]). After recording baseline fluorescence, compounds were dispensed into the wells via the liquid handling device. […] For further analysis, fluorescence signals were calculated for each well, corrected for background intensities and normalized to the initial signals. […]

rat TRPV1 = target: T2, rat TRPV1 (Rattus norvegicus, UniProt O35433); assay: fluo-4 Ca2+ assay selectivity, HEK cells expressing rat TRPV1; conditions: concentrations up to 50 μM
T2 construct: expressed in transfected cells; host or cells: HEK293
T2 sequence (O35433 whole entry): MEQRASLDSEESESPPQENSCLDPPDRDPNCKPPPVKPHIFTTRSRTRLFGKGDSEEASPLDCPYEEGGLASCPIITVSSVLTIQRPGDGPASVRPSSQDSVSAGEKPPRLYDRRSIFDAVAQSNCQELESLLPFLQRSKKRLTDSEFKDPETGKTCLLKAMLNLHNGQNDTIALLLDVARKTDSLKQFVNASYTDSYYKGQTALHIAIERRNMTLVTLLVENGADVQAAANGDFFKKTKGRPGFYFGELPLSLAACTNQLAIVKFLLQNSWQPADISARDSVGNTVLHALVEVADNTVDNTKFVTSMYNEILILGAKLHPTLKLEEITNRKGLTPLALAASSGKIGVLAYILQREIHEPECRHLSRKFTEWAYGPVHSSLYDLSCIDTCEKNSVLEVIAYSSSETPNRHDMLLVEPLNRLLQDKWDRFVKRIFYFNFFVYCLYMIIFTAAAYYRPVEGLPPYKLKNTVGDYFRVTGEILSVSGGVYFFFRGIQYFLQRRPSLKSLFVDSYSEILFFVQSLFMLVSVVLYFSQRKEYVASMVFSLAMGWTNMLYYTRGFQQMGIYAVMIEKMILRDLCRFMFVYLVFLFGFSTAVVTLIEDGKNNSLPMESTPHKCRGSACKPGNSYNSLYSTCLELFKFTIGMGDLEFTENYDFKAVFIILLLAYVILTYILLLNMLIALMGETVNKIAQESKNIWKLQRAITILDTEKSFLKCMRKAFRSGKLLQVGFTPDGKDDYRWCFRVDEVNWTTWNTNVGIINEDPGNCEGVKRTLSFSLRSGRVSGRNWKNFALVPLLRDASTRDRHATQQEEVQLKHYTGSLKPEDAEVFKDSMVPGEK
Text: as §1, §2

human TRPM8 = target: T3, human TRPM8 (Homo sapiens, UniProt Q7Z2W7); assay: fluo-4 Ca2+ assay selectivity, HEK cells expressing human TRPM8; conditions: concentrations up to 50 μM
T3 construct: expressed in transfected cells; host or cells: HEK293
T3 sequence (Q7Z2W7 whole entry): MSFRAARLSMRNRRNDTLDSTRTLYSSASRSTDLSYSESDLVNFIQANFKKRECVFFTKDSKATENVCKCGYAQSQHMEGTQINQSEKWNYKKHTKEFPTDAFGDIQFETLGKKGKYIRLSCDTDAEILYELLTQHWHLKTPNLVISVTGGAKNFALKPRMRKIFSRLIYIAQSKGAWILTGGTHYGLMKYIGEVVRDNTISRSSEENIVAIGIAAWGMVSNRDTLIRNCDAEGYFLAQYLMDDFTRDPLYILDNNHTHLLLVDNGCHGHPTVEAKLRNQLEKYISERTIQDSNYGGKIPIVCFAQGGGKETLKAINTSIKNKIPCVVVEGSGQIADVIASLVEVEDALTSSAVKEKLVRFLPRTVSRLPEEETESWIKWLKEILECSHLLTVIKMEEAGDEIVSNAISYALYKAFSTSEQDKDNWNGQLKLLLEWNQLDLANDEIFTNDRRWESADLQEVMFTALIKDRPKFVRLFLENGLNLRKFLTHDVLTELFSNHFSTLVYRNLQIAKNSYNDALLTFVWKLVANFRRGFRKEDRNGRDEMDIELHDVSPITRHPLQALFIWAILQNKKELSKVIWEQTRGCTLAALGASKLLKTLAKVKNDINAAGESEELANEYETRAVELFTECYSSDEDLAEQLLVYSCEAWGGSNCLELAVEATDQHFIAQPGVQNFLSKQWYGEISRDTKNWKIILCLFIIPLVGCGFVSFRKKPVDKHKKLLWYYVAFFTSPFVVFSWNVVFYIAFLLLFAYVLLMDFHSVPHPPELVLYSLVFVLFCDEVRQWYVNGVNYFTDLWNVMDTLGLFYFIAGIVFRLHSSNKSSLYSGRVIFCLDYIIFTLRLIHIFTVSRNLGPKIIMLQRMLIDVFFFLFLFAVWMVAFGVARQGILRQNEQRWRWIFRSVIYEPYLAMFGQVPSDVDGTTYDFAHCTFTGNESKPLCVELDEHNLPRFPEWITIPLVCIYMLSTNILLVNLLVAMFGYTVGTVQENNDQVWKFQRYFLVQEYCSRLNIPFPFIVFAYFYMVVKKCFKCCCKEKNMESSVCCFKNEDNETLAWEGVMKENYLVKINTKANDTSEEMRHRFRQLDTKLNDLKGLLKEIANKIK
Text: as §1, §2

human TRPA1 = target: T4, human TRPA1 (Homo sapiens, UniProt O75762); assay: fluo-4 Ca2+ assay selectivity, HEK cells expressing human TRPA1
T4 construct: expressed in transfected cells; host or cells: HEK293
T4 sequence (O75762 whole entry): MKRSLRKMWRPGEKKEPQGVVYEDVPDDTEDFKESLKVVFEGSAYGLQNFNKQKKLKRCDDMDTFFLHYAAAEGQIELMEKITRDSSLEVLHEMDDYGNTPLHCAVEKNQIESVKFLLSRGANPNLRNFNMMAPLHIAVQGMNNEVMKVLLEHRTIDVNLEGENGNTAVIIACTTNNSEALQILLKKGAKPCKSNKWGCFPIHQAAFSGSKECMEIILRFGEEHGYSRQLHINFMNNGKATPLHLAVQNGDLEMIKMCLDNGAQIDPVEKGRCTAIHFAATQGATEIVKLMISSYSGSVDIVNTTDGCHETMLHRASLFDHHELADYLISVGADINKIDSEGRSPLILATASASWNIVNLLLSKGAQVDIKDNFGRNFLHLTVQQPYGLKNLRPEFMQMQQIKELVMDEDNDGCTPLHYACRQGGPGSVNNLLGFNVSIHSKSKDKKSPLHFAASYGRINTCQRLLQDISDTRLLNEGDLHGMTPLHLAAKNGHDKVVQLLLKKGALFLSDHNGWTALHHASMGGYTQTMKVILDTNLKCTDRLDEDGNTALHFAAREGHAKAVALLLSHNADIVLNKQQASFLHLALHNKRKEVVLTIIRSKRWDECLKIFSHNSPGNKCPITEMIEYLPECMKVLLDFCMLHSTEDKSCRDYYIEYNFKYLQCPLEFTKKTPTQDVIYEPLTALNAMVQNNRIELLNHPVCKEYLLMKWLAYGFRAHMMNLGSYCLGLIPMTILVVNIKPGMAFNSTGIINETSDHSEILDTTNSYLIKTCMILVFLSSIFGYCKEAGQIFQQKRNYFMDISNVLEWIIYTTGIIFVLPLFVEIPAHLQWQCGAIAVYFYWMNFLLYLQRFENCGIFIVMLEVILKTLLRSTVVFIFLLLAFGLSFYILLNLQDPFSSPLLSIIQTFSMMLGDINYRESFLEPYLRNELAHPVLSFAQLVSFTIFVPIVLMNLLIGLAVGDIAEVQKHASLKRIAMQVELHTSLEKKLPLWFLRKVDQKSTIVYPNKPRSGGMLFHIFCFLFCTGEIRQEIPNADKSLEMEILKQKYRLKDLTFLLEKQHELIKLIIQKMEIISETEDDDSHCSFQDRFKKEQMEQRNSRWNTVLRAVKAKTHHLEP
Text: as §1, §2

- EC50 (human TRPV3): 7.2 ± 1.4 µM
- effect on TRPV1 (rat TRPV1): only a minor activation
- effect on TRPM8 (human TRPM8): no effect
- effect on TRPA1 (human TRPA1): activates
Structure (SMILES): COC(=O)C12CN(Cc3ccccc3)CC1(C(=O)OC)CN(Cc1ccccc1)C2 (stereo not shown) [AV3-1]
